From ChEMBL document CHEMBL1138437, “Synthesis and evaluation of novel neamine derivatives effectively targeting to RNA” (Bioorg Med Chem Lett, 2009) come the findings set out here.

Structures are written as SMILES. Values after ≈ are worked out from the molar mass of the structure shown. A value given as a limit tells only on which side of the number the result lay.

Experiment [1] concerns the target Nucleic Acid. The experiment is described as follows: Binding affinity to A site of biotinylated 16S rRNA (unknown origin) by surface plasmon resonance analysis. It is filed as nucleic-acid assay.
The target of experiment [2] is Nucleic Acid. The experiment is described as follows: Binding affinity to biotinylated HIV1 trans-activation response element RNA by surface plasmon resonance analysis. The experiment is classed as nucleic-acid assay, Human immunodeficiency virus 1.
Another experiment concerns Escherichia coli. The experiment is described as follows: Antibacterial activity against Escherichia coli ATCC 25922 after 18 hrs. It is filed as functional. The following applies: ATCC 25922, 18 h.
A further experiment deals with Staphylococcus aureus. The experiment is described as follows: Antibacterial activity against Staphylococcus aureus ATCC 29213 after 18 hrs. It is filed as functional. As to conditions: ATCC 29213, 18 h.
For the next experiment, the system named is Pseudomonas aeruginosa. The experiment is described as follows: Antibacterial activity against Pseudomonas aeruginosa ATCC 27853 after 18 hrs. The experiment is classed as functional. As to conditions: ATCC 27853, 18 h.

For the molecule `NCCN[C@H]1[C@@H](O)[C@H](N)C[C@H](N)[C@@H]1O[C@H]1O[C@H](CN)[C@@H](O)[C@H](O)[C@H]1N`, the figures for the Kd at Nucleic Acid [1] and at Nucleic Acid [2] were 7 µM and 14 µM, respectively. Moreover, the MIC against Escherichia coli is 100 µM (≈ 36.4 µg/mL); against Staphylococcus aureus, over 100 µM; against Pseudomonas aeruginosa, 50 µM (≈ 18.2 µg/mL).

In the case of `NCCCC[C@H](N)C(=O)NCCN[C@H]1[C@@H](O)[C@H](N)C[C@H](N)[C@@H]1O[C@H]1O[C@H](CN)[C@@H](O)[C@H](O)[C@H]1N`, the Kd is 1 µM at Nucleic Acid [1] and 2 µM on Nucleic Acid [2]. Also, the MIC was 50 µM (≈ 24.6 µg/mL) in the experiment with Escherichia coli, 25 µM (≈ 12.3 µg/mL) with Staphylococcus aureus and over 100 µM with Pseudomonas aeruginosa.

`N=C(N)NCCC[C@H](N)C(=O)NCCN[C@H]1[C@@H](O)[C@H](N)C[C@H](N)[C@@H]1O[C@H]1O[C@H](CN)[C@@H](O)[C@H](O)[C@H]1N`: the dissociation constant Kd at Nucleic Acid [1] is 2 µM; at Nucleic Acid [2], 3 µM. Also, the MIC against Escherichia coli is 100 µM (≈ 52.1 µg/mL); in the experiment on Staphylococcus aureus it was over 100 µM; against Pseudomonas aeruginosa it was over 100 µM.

For `NC[C@H]1O[C@H](O[C@H]2[C@H](O)[C@@H](O)[C@H](N)C[C@@H]2N)[C@H](N)[C@@H](O)[C@@H]1O` [NEAMINE], the Kd on Nucleic Acid [1] turned out to be 19 µM; at Nucleic Acid [2], 24 µM. Further, the MIC in the experiment on Escherichia coli is 50 µM (≈ 16.1 µg/mL); in the experiment on Staphylococcus aureus it was 50 µM (≈ 16.1 µg/mL); in the experiment with Pseudomonas aeruginosa it was over 100 µM.
